Data: US20030199671A1, “Binding molecules for Fc-region polypeptides” (priority 2001, published 2003)
Positions of bridges follow the written chain, without caps; N, C: chain ends. Residues, ends and D or L forms follow the SMILES beside them. *: point of attachment. 5FAM = O=C1OC2(c3ccc(O)cc3Oc3cc(O)ccc32)c2ccc(C(=O)*)cc21

Tests used:
[1] = target: Fc (mixture of human plasma IgG isoforms); test: Fluorescence anisotropy binding, fluorescein-labeled peptide; conditions: 2 nM labeled peptide; 50 mM Tris-HCl, 200 mM NaCl, pH 8.0, 0.01% Tween 20
Experimental: (§1) Peptides were synthesized by BACHEM Bioscience, Inc., (King of Prussia, Pa.), fluorescein labeled and purified by HPLC. Binding studies were performed using either a mixture of human plasma IgG isoforms (the Fc target) or the individual human plasma IgG isoforms: IgG1, IgG2, IgG3, or IgG4. All Fc target proteins were obtained from Calbiochem.
(§2) All measurements were performed in 384 well microplates with 20 nM fluorescein-labeled peptide and various concentrations of the IgG isoform in a volume of between 10 and 20 μl using a Tecan Polarion fluorescence polarization plate reader. All binding buffers included 0.01% (v/v) Tween 20 to prevent peptide adsorption to the microplate. The binding mixture was equilibrated for 10 minutes in the microplate at 30° C. prior to performing the measurement.
(§3) Peptides were synthesized, fluorescein-labeled and HPLC purified as described above. Binding studies were performed using either a mixture of human plasma IgG isoforms (the Fc protein) or the individual human plasma IgG isoforms: IgG1, IgG2, IgG3, or IgG4.
(§4) Measurements were performed in 384-well microplates with 2 nM fluorescein-labeled peptide and a varied concentration of the IgG isoform target in a volume of 10 μl using a Tecan Polarion fluorescence polarization plate reader. The Fc binding buffer was 50 mM Tris-HCl, 200 mM NaCl, pH 8.0, 0.01% Tween 20. The IgG binding buffer was PBS with 0.01% Tween 20. The binding mixtures were equilibrated for 10 minutes in the microplate at 30° C. prior to performing the measurements.

human plasma IgG3 = target: T1, human plasma IgG3 (Homo sapiens, UniProt P01860); test: as above; conditions: 2 nM labeled peptide; PBS with 0.01% Tween 20
T1 construct: the individual human plasma IgG isoforms: IgG1, IgG2, IgG3, or IgG4; purchased Calbiochem; host or cells: human plasma
Experimental: as §1, §2, §3, §4

human IgG1 = target: T2, human IgG1 (Homo sapiens, UniProt P01857); assay type: binding; conditions: peptide immobilized on NHS activated sepharose 4 fast flow, target ligand density 2.0 μmole/ml; batch filterplate; hIgG1
T2 construct: all human subtypes derived from myeloma patients; purchased Calbiochem 400120; host or cells: myeloma patients
Method in brief: (§5)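 Percent bound = control mass minus unbound mass, with unbound IgG read at A280 after 1–1.5 h room-temperature incubation with the peptide resin in PBST pH 7.2 or TBST pH 7.5. Bound IgG was eluted 30–60 min with 0.1 M citrate pH 4.0 and/or bicarbonate pH 8.5. Recovery is given as percent of total load.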

human IgG2 = target: T3, human IgG2 (Homo sapiens, UniProt P01859); assay type: binding; conditions: peptide immobilized on NHS activated sepharose 4 fast flow, target ligand density 2.0 μmole/ml; batch filterplate; hIgG2
T3 construct: all human subtypes derived from myeloma patients; purchased Calbiochem 400122; host or cells: myeloma patients
Method in brief: (§6)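 Read-out is A280 of unbound IgG (1.4 mg/ml extinction coefficient), with percent bound derived against non-filtered or negative controls. Targets were incubated with immobilized peptides in PBST or TBST for 1-1.5 h at room temperature. Hydrolyzed Sepharose and immobilized Protein A serve as negative and positive controls.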

human IgG = assay type: binding; conditions: batch filterplate; for Batch Binding (% Capture of Total Load) hIgG: peptide immobilized on NHS activated sepharose 4 fast flow, target ligand density 2.0 μmole/ml
Method in brief: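 Steps: dilute IgG in PBST or TBST; incubate with immobilized peptide 1-1.5 h, RT; collect unbound by centrifugation; measure A280; wash three times; elute with 0.1 M sodium bicarbonate pH 8.5 and/or 0.1 M sodium citrate pH 4.0 for 30-60 min and quantitate.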

[2] = Solubility in aqueous coupling buffer; assay type: physicochemical; conditions: aqueous coupling conditions
Description: The varying degree of binding may be due to, in part, to lower coupling efficiencies as a result of varying degrees of solubility in aqueous coupling conditions. […] However, coupling efficiencies of all nine DX253 variants monitored by rp-HPLC was high and averaged>85%. Actual ligand densities were not determined.

IgG3 = IgG3 (Homo sapiens, UniProt P01860); assay type: binding; set-up: all human subtypes derived from myeloma patients; purchased Calbiochem 400124; host or cells: myeloma patients; conditions: peptide immobilized on NHS activated sepharose 4 fast flow, target ligand density 2.0 μmole/ml; batch filterplate; hIgG3
Method in brief: as §5

IgG4 = IgG4 (Homo sapiens, UniProt P01861); assay type: binding; set-up: all human subtypes derived from myeloma patients; purchased Calbiochem 400126; host or cells: myeloma patients; conditions: peptide immobilized on NHS activated sepharose 4 fast flow, target ligand density 2.0 μmole/ml; batch filterplate; hIgG4
Method in brief: as §6

human plasma IgG1 = target: T4, human plasma IgG1 (Homo sapiens, UniProt P01857); test: Fluorescence anisotropy binding, fluorescein-labeled peptide; conditions: 2 nM labeled peptide; PBS with 0.01% Tween 20
T4 construct: the individual human plasma IgG isoforms: IgG1, IgG2, IgG3, or IgG4; purchased Calbiochem; host or cells: human plasma
Experimental: as §2, §3, §4

human plasma IgG2 = target: T5, human plasma IgG2 (Homo sapiens, UniProt P01859); test: as above; conditions: 2 nM labeled peptide; PBS with 0.01% Tween 20
T5 construct: the individual human plasma IgG isoforms: IgG1, IgG2, IgG3, or IgG4; purchased Calbiochem; host or cells: human plasma
Experimental: as §2, §3, §4

human plasma IgG4 = target: T6, human plasma IgG4 (Homo sapiens, UniProt P01861); test: as above; conditions: 2 nM labeled peptide; PBS with 0.01% Tween 20
T6 construct: the individual human plasma IgG isoforms: IgG1, IgG2, IgG3, or IgG4; purchased Calbiochem; host or cells: human plasma
Experimental: as §1, §2, §3, §4

Chain of IgG4 (P01861 1-327 isoform P01861-1): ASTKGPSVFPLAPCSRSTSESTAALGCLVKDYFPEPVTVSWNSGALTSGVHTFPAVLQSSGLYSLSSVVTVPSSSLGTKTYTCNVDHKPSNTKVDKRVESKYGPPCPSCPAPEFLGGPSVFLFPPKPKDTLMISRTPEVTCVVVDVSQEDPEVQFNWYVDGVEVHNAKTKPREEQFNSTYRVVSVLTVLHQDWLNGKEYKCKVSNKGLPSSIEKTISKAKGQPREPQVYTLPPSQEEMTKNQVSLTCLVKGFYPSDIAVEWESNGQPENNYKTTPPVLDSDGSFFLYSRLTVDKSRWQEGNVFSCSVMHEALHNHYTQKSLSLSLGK
Chain of IgG3 (P01860 1-377 isoform P01860-1): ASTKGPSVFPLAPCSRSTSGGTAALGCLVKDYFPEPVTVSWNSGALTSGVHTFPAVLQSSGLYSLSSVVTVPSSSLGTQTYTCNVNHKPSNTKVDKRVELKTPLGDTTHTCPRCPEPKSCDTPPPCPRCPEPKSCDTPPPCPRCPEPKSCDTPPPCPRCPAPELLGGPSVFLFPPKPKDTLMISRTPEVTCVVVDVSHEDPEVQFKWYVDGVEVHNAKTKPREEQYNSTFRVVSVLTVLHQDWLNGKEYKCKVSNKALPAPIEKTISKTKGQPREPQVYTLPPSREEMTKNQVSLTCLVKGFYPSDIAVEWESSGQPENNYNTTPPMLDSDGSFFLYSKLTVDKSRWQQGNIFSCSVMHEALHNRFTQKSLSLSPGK
T2 sequence (P01857 1-330 isoform P01857-1): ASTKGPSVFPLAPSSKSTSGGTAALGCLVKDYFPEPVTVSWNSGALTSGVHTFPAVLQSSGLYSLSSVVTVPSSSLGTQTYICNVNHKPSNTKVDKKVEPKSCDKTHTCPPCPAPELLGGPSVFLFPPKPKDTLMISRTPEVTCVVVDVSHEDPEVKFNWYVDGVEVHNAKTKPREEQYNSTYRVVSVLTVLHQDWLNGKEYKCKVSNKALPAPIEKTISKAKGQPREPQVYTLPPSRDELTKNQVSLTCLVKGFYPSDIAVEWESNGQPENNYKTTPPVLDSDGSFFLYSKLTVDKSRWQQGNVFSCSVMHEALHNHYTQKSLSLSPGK
T3 sequence (P01859 1-326 isoform P01859-1): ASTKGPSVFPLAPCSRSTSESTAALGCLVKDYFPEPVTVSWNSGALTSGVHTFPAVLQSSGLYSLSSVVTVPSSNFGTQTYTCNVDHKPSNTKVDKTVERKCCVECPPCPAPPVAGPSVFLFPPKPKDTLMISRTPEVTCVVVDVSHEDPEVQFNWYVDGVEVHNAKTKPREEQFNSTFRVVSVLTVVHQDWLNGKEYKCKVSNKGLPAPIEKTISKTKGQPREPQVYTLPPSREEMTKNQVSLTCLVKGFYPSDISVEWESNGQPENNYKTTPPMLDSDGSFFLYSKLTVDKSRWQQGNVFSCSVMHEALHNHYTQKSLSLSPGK
T6 sequence (P01861 1-327 isoform P01861-1): as the sequence (P01861 1-327 isoform P01861-1) above
T1 sequence (P01860 1-377 isoform P01860-1): as the sequence (P01860 1-377 isoform P01860-1) above
T4 sequence (P01857 1-330 isoform P01857-1): as the sequence (P01857 1-330 isoform P01857-1) above
T5 sequence (P01859 1-326 isoform P01859-1): as the sequence (P01859 1-326 isoform P01859-1) above

Row | Compound | Kd [1] | KD (μM) IgG3 (human plasma IgG3) | Batch Binding (% Capture of Total Load) hIgG1 (human IgG1) | Batch Binding (% Capture of Total Load) hIgG2 (human IgG2) | Binding properties / profile relative to parent peptide (human IgG; human IgG and subtypes) | Batch Binding (% Capture of Total Load) hIgG (human IgG) | Solubility in aqueous coupling buffer [2] | Batch Binding (% Capture of Total Load) hIgG3 (IgG3) | Batch Binding (% Capture of Total Load) hIgG4 (IgG4) | KD (μM) IgG1 (human plasma IgG1) | KD (μM) IgG2 (human plasma IgG2) | KD (μM) Fc [1] | KD (μM) IgG4 (human plasma IgG4)
1 | CC(=O)NCC(=O)N[C@@H](CC(=O)O)C(=O)N[C@@H](CCCNC(=N)N)C(=O)N[C@@H](CCCNC(=N)N)C(=O)N[C@@H](C)C(=O)N[C@H]1CSSC[C@@H](C(=O)N[C@@H](C)C(=O)NCC(=O)N[C@@H](Cc2c[nH]cn2)C(=O)N[C@@H](CCC(=O)O)C(=O)N2CCC[C@H]2C(=O)NCC(=O)N2CCC[C@H]2C(=O)N[C@@H](CCC(=O)O)C(=O)NCC(=O)NCC(=O)NCC(=O)N[C@@H](CCCCNC(=O)c2ccc3c(c2)C(=O)OC32c3ccc(O)cc3Oc3cc(O)ccc32)C(N)=O)NC(=O)[C@H](Cc2c[nH]c3ccccc23)NC(=O)[C@H](C(C)C)NC(=O)[C@H](CC(C)C)NC(=O)[C@H](C)NC(=O)CNC(=O)[C@H](CO)NC(=O)[C@H](Cc2c[nH]c3ccccc23)NC(=O)[C@H](CC(=O)O)NC(=O)[C@H](CCCNC(=N)N)NC(=O)[C@H](CO)NC1=O [DX301] (Ac-GDRRACSRDWSGALVWCAGHEPGPEGGGK(5FAM)-NH2; disulfide 6-17) | 6.8 ± 4.3 µM | No binding |  |  |  |  |  |  |  |  |  |  | 
2 | CC(=O)N[C@H]1CSSC[C@@H](C(=O)N[C@@H](C)C(=O)NCC(=O)N[C@@H](Cc2c[nH]cn2)C(=O)N[C@@H](CCC(=O)O)C(=O)N2CCC[C@H]2C(=O)NCC(=O)N2CCC[C@H]2C(=O)N[C@@H](CCC(=O)O)C(=O)NCC(=O)NCC(=O)NCC(=O)N[C@@H](CCCCN)C(N)=O)NC(=O)[C@H](Cc2c[nH]c3ccccc23)NC(=O)[C@H](C(C)C)NC(=O)[C@H](CC(C)C)NC(=O)[C@H](C)NC(=O)CNC(=O)[C@H](CO)NC(=O)[C@H](Cc2c[nH]c3ccccc23)NC(=O)[C@H](CC(=O)O)NC(=O)[C@H](CCCNC(=N)N)NC(=O)[C@H](CO)NC1=O [DX1147] (Ac-CSRDWSGALVWCAGHEPGPEGGGK-NH2; disulfide 1-12) |  |  | 83% | 76% | almost identical to those of DX253 | 74% | not fully soluble | 0% | 47% |  |  |  | 
3 | CC(=O)N[C@@H](CO)C(=O)N[C@@H](CCCNC(=N)N)C(=O)N[C@@H](C)C(=O)N[C@H]1CSSC[C@@H](C(=O)N[C@@H](C)C(=O)NCC(=O)N[C@@H](Cc2c[nH]cn2)C(=O)N[C@@H](CCC(=O)O)C(=O)N2CCC[C@H]2C(=O)NCC(=O)N2CCC[C@H]2C(=O)N[C@@H](CCC(=O)O)C(=O)NCC(=O)NCC(=O)NCC(=O)N[C@@H](CCCCN)C(N)=O)NC(=O)[C@H](Cc2c[nH]c3ccccc23)NC(=O)[C@H](C(C)C)NC(=O)[C@H](CC(C)C)NC(=O)[C@H](C)NC(=O)CNC(=O)[C@H](CO)NC(=O)[C@H](Cc2c[nH]c3ccccc23)NC(=O)[C@H](CC(=O)O)NC(=O)[C@H](CCCNC(=N)N)NC(=O)[C@H](CO)NC1=O [DX1139] (Ac-SRACSRDWSGALVWCAGHEPGPEGGGK-NH2; disulfide 4-15) |  |  | 43% | 34% |  | 36% | not fully soluble | 0% | 22% |  |  |  | 
4 | CC(=O)NCC(=O)N[C@H]1CSSC[C@@H](C(=O)N[C@@H](C)C(=O)NCC(=O)N[C@@H](Cc2c[nH]cn2)C(=O)N[C@@H](CCC(=O)O)C(=O)N2CCC[C@H]2C(=O)NCC(=O)N2CCC[C@H]2C(=O)N[C@@H](CCC(=O)O)C(=O)NCC(=O)NCC(=O)NCC(=O)N[C@@H](CCCCN)C(N)=O)NC(=O)[C@H](Cc2c[nH]c3ccccc23)NC(=O)[C@H](C(C)C)NC(=O)[C@H](CC(C)C)NC(=O)[C@H](C)NC(=O)CNC(=O)[C@H](CO)NC(=O)[C@H](Cc2c[nH]c3ccccc23)NC(=O)[C@H](CC(=O)O)NC(=O)[C@H](CCCNC(=N)N)NC(=O)[C@H](CO)NC1=O [DX1146] (Ac-GCSRDWSGALVWCAGHEPGPEGGGK-NH2; disulfide 2-13) |  |  | 83% | 80% |  | 73% | not fully soluble | 0% | 50% |  |  |  | 
5 | CC(=O)N[C@@H](CCCNC(=N)N)C(=O)N[C@@H](CCCNC(=N)N)C(=O)N[C@@H](C)C(=O)N[C@H]1CSSC[C@@H](C(=O)N[C@@H](C)C(=O)NCC(=O)N[C@@H](Cc2c[nH]cn2)C(=O)N[C@@H](CCC(=O)O)C(=O)N2CCC[C@H]2C(=O)NCC(=O)N2CCC[C@H]2C(=O)N[C@@H](CCC(=O)O)C(=O)NCC(=O)NCC(=O)NCC(=O)N[C@@H](CCCCN)C(N)=O)NC(=O)[C@H](Cc2c[nH]c3ccccc23)NC(=O)[C@H](C(C)C)NC(=O)[C@H](CC(C)C)NC(=O)[C@H](C)NC(=O)CNC(=O)[C@H](CO)NC(=O)[C@H](Cc2c[nH]c3ccccc23)NC(=O)[C@H](CC(=O)O)NC(=O)[C@H](CCCNC(=N)N)NC(=O)[C@H](CO)NC1=O [DX1140] (Ac-RRACSRDWSGALVWCAGHEPGPEGGGK-NH2; disulfide 4-15) |  |  | 43% | 29% |  | 40% | not fully soluble | 0% | 20% |  |  |  | 
6 | CC(=O)N[C@@H](C)C(=O)NCC(=O)N[C@@H](CCCCN)C(=O)N[C@@H](Cc1ccc(O)cc1)C(=O)N[C@@H](Cc1c[nH]c2ccccc12)C(=O)N[C@H]1CSSC[C@@H](C(=O)N[C@@H](CCCCN)C(=O)N[C@H](C(=O)NCC(=O)N[C@H](C(=O)N2CCC[C@H]2C(=O)NCC(=O)N2CCC[C@H]2C(=O)N[C@@H](CCC(=O)O)C(=O)NCC(=O)NCC(=O)NCC(=O)N[C@@H](CCCCNC(=O)c2ccc3c(c2)C(=O)OC32c3ccc(O)cc3Oc3cc(O)ccc32)C(N)=O)[C@@H](C)O)[C@@H](C)O)NC(=O)[C@H](CCC(N)=O)NC(=O)[C@H](CC(C)C)NC(=O)CNC(=O)[C@H](Cc2c[nH]c3ccccc23)NC(=O)[C@H](Cc2ccccc2)NC(=O)[C@H](CO)NC1=O [DX300] (Ac-AGKYWCSFWGLQCKTGTPGPEGGGK(5FAM)-NH2; disulfide 6-13) |  |  |  |  |  |  |  |  |  | No binding | No binding | No binding | No binding
